From patent US11325889B2, “Substituted 3-((3-aminophenyl)amino)piperidine-2,6-dione compounds, compositions thereof, and methods of treatment therewith” (Celgene Corporation, priority 2018, dated 2022) come the findings set out here.

The term DC50 denotes the concentration at which degradation of the target reaches its halfway point.

Read-outs that look alike come from different tables or passages of the source.

The experiment addresses T1, AR protein in VCaP cells (Homo sapiens, UniProt P10275).
T1 construct: endogenous in cells; host or cells: VCaP cells
T1 sequence (P10275 1-920): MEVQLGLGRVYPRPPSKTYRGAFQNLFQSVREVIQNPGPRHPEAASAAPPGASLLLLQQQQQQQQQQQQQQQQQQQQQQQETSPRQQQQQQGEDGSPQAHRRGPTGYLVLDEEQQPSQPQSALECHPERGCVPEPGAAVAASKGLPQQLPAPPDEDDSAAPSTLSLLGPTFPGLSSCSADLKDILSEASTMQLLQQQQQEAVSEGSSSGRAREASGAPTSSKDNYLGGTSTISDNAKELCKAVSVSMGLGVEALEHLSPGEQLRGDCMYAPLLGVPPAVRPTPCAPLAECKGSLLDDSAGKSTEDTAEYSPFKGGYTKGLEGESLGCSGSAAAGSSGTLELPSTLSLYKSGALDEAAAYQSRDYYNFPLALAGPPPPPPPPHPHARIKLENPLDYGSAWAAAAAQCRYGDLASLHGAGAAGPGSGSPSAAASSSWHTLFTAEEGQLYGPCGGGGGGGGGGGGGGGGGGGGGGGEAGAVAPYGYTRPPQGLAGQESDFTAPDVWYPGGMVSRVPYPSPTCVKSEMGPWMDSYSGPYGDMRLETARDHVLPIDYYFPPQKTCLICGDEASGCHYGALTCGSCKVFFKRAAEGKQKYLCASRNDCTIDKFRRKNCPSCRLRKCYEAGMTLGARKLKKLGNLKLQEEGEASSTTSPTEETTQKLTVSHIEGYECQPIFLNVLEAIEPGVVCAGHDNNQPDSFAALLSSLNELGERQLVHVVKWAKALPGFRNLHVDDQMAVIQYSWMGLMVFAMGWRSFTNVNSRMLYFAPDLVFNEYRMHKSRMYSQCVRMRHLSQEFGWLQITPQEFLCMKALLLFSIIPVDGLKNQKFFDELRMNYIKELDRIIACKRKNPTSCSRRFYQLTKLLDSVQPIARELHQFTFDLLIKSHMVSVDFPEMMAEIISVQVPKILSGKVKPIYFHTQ
Nature of the experiment: VCAP AR Degradation Assay (AR ELISA, 24 h). The conditions noted are these: for Y (lowest measured AR level normalized to DMSO control): AR degradation efficiency; for DC50: concentration of compound when AR level = 50% of DMSO control. It counts as cell-based. The protocol:
VCAP AR Degradation Assay.
Test compounds were pre-dispensed into a Corning CellBind 96-well clear bottom plate (Cat #3300) using an acoustic dispenser to make a 10-point concentration series at 1:3 dilution for each compound. The final top concentration of each compound was […]. DMSO at a final concentration of 0.1% was used as a control. VCaP cells cultured in DMEM with 8% fetal bovine serum (FBS) were seeded at 50K cells per well in a 200 μL volume into the compound plate and incubated at 37° C. in a CO2 incubator for 24 h. The medium was carefully removed from the cells and the plate was placed on ice. One hundred […] of ice-cold 1× cell lysis buffer from Cell Signaling Technologies (Cat #9803) was added to each well of the cells and the plate was incubated at 4° C. on a shaker for 1 h. Fifteen […] of cell lysate was used for AR ELISA detection using a PathScan Total Sandwich AR ELISA kit (Cell Signaling Technology, Cat #12580). AR levels in compound-treated wells were normalized to that of DMSO control and expressed as percent of control (PoC) (y). A Four Parameter Logistic Model (Sigmoidal Dose-Response Model) was used to determine the compound's DC50, and EC50, using the following equation: y=(A+((B−A)/(1+((C/x)^D)))) • A=YMin (lowest AR level normalized to DMSO control in response to compound • treatment, as determined by curve fit) • B=YMax (maximum AR level as determined by curve fit) • C=EC50 • D=Hill Slope • x=compound concentration • EC50=the concentration of compound when y=(YMax−YMin)/2 • DC50=the concentration of the compound when y=50% of DMSO control (50% AR degradation) • y=AR protein level normalized to DMSO control
The lowest measured AR level normalized to DMSO control in response to compound treatment, termed Y value, was used to characterize the compound-mediated AR degradation efficiency.
In general terms: In an ELISA, binding on a coated surface is turned into a signal by an enzyme label.

As for `CCc1cc(N2C(=S)N(c3cnc(C#N)c(C(F)(F)F)c3)C(=O)C23CCC3)ccc1OCCC1CCN(CC(=O)Nc2cccc(NC3CCC(=O)NC3=O)c2)C(C)(C)C1` (single isomer, unassigned) [Cmpd 54], the “Y (lowest measured AR level normalized to DMSO control)” value is listed as “* (0<Y<=25%)”. Further, where the note is “read-out: DC50”, the DC50 is below 100 nM.

Take `CCc1cc(N2C(=S)N(c3cnc(C#N)c(C(F)(F)F)c3)C(=O)C23CCC3)ccc1OCC[C@H]1C[C@H]2CC[C@@H](C1)N2CC(=O)Nc1cccc(NC2CCC(=O)NC2=O)c1` (single isomer, unassigned) [Cmpd 67]: the “Y (lowest measured AR level normalized to DMSO control)” value was “** (25%<Y<=35%)” and the DC50 is below 100 nM.

As to `CC1(C)C(=O)N(c2ccc(C#N)c(C(F)(F)F)c2)C(=S)N1c1ccc(OC2CCN(CC(=O)Nc3cccc(NC4CCC(=O)NC4=O)c3)CC2)c(F)c1` (stereo not shown) [Cmpd 1, 2-(4-(4-(3-(4-cyano-3-(trifluoromethyl)phenyl)-5,5-dimethyl-4-oxo-2-thioxoimidazolidin-1-yl)-2-fluorophenoxy)piperidin-1-yl)-N-(3-(2,6-dioxopiperidin-3-ylamino)phenyl)acetamide], the “Y (lowest measured AR level normalized to DMSO control)” value is “** (25%<Y<=35%)”. The DC50 (read-out: DC50) is below 100 nM.

`CC1(C)C(=O)N(c2ccc(C#N)c(C(F)(F)F)c2)C(=S)N1c1ccc(OCC2CCN(CC(=O)Nc3cccc(NC4CCC(=O)NC4=O)c3)CC2)c(F)c1` (stereo not shown) [Cmpd 2, 2-(4-((4-(3-(4-cyano-3-(trifluoromethyl)phenyl)-5,5-dimethyl-4-oxo-2-thioxoimidazolidin-1-yl)-2-fluorophenoxy)methyl)piperidin-1-yl)-N-(3-(2,6-dioxopiperidin-3-ylamino)phenyl)acetamide]: the “Y (lowest measured AR level normalized to DMSO control)” value was “** (25%<Y<=35%)”. The half-maximal degradation concentration (DC50) (read-out: DC50) fell in the range of 100 to 500 nM.

Regarding `CC1(C)C(=O)N(c2ccc(C#N)c(C(F)(F)F)c2)C(=S)N1c1ccc(OCCC2CCN(CC(=O)Nc3cccc(NC4CCC(=O)NC4=O)c3)CC2)c(F)c1` (stereo not shown) [Cmpd 3, 2-(4-(2-(4-(3-(4-cyano-3-(trifluoromethyl)phenyl)-5,5-dimethyl-4-oxo-2-thioxoimidazolidin-1-yl)-2-fluorophenoxy)ethyl)piperidin-1-yl)-N-(3-(2,6-dioxopiperidin-3-ylamino)phenyl)acetamide], the “Y (lowest measured AR level normalized to DMSO control)” value is on record as “** (25%<Y<=35%)”. In addition, the DC50 (read-out: DC50) fell in the range of 100 to 500 nM.

Regarding `CC1(C)C(=O)N(c2ccc(C#N)c(C(F)(F)F)c2)C(=S)N1c1ccc(OCCC2CCN(CC(=O)Nc3cccc(NC4CCC(=O)NC4=O)c3)CC2)c(Cl)c1` (stereo not shown) [Cmpd 4, 2-(4-(2-(2-chloro-4-(3-(4-cyano-3-(trifluoromethyl)phenyl)-5,5-dimethyl-4-oxo-2-thioxoimidazolidin-1-yl)phenoxy)ethyl)piperidin-1-yl)-N-(3-(2,6-dioxopiperidin-3-ylamino)phenyl)acetamide], the “Y (lowest measured AR level normalized to DMSO control)” value is on record as “** (25%<Y<=35%)”. The DC50 (read-out: DC50) lay in the range of 100 to 500 nM.

Take `CC1(C)C(=O)N(c2cnc(C#N)c(C(F)(F)F)c2)C(=S)N1c1ccc(OCCC2CCN(CC(=O)Nc3cccc(NC4CCC(=O)NC4=O)c3)CC2)c(Cl)c1` (stereo not shown) [Cmpd 5, 2-(4-(2-(2-chloro-4-(3-(6-cyano-5-(trifluoromethyl)pyridin-3-yl)-5,5-dimethyl-4-oxo-2-thioxoimidazolidin-1-yl)phenoxy)ethyl)piperidin-1-yl)-N-(3-(2,6-dioxopiperidin-3-ylamino)phenyl)acetamide]: the “Y (lowest measured AR level normalized to DMSO control)” value is listed as “* (0<Y<=25%)”. Further, the DC50 (read-out: DC50) is below 100 nM.

Regarding `CC1(C)C(=O)N(c2cnc(C#N)c(C(F)(F)F)c2)C(=S)N1c1ccc(OCC2CCN(CC(=O)Nc3cccc(NC4CCC(=O)NC4=O)c3)CC2)cc1` (stereo not shown) [Cmpd 6, 2-(4-((4-(3-(6-cyano-5-(trifluoromethyl)pyridin-3-yl)-5,5-dimethyl-4-oxo-2-thioxoimidazolidin-1-yl)phenoxy)methyl)piperidin-1-yl)-N-(3-(2,6-dioxopiperidin-3-ylamino)phenyl)acetamide], the “Y (lowest measured AR level normalized to DMSO control)” value is recorded as “** (25%<Y<=35%)”. The DC50 (read-out: DC50) lay in the range of 100 to 500 nM.

Take `CC1(C)C(=O)N(c2cnc(C#N)c(C(F)(F)F)c2)C(=S)N1c1ccc(OCC2CCN(CC(=O)Nc3cccc(NC4CCC(=O)NC4=O)c3)CC2)c(Cl)c1` (stereo not shown) [Cmpd 7, 2-(4-((2-chloro-4-(3-(6-cyano-5-(trifluoromethyl)pyridin-3-yl)-5,5-dimethyl-4-oxo-2-thioxoimidazolidin-1-yl)phenoxy)methyl)piperidin-1-yl)-N-(3-(2,6-dioxopiperidin-3-ylamino)phenyl)acetamide]: the “Y (lowest measured AR level normalized to DMSO control)” value is recorded as “** (25%<Y<=35%)”. Further, under “read-out: DC50”, the DC50 lay in the range of 500 to 1000 nM.

For the molecule `CC1(C)C(=O)N(c2ccc(C#N)c(C(F)(F)F)c2)C(=S)N1c1ccc(OCCC2CCN(CC(=O)Nc3cc(Cl)cc(NC4CCC(=O)NC4=O)c3)CC2)c(Cl)c1` (stereo not shown) [Cmpd 8, 2-(4-(2-(2-chloro-4-(3-(4-cyano-3-(trifluoromethyl)phenyl)-5,5-dimethyl-4-oxo-2-thioxoimidazolidin-1-yl)phenoxy)ethyl)piperidin-1-yl)-N-(3-chloro-5-(2,6-dioxopiperidin-3-ylamino)phenyl)acetamide], the “Y (lowest measured AR level normalized to DMSO control)” value is reported as “* (0<Y<=25%)”. The DC50 (read-out: DC50) was in the range of 100 to 500 nM.

On to `CC1(C)C(=O)N(c2ccc(C#N)c(C(F)(F)F)c2)C(=S)N1c1ccc(OCC2CCN(CC(=O)Nc3cc(Cl)cc(NC4CCC(=O)NC4=O)c3)CC2)c(Cl)c1` (stereo not shown) [Cmpd 9, 2-(4-((2-chloro-4-(3-(4-cyano-3-(trifluoromethyl)phenyl)-5,5-dimethyl-4-oxo-2-thioxoimidazolidin-1-yl)phenoxy)methyl)piperidin-1-yl)-N-(3-chloro-5-(2,6-dioxopiperidin-3-ylamino)phenyl)acetamide], for which the “Y (lowest measured AR level normalized to DMSO control)” value is given as “*** (35%<Y<50%)”. In addition, the DC50 (read-out: DC50) is 500 to 1000 nM.

`CC1(C)C(=O)N(c2ccc(C#N)c(C(F)(F)F)c2)C(=S)N1c1ccc(OCCC2CCN(CC(=O)Nc3cc(Cl)cc(NC4CCC(=O)NC4=O)c3)CC2)c(F)c1` (stereo not shown) [Cmpd 10, N-(3-chloro-5-(2,6-dioxopiperidin-3-ylamino)phenyl)-2-(4-(2-(4-(3-(4-cyano-3-(trifluoromethyl)phenyl)-5,5-dimethyl-4-oxo-2-thioxoimidazolidin-1-yl)-2-fluorophenoxy)ethyl)piperidin-1-yl)acetamide]: the “Y (lowest measured AR level normalized to DMSO control)” value is listed as “** (25%<Y<=35%)”. Also, for the setting “read-out: DC50”, the DC50 was 100 to 500 nM.

On to `CCc1cc(N2C(=S)N(c3ccc(C#N)c(C(F)(F)F)c3)C(=O)C2(C)C)ccc1OCC1CCN(CC(=O)Nc2cccc(NC3CCC(=O)NC3=O)c2)CC1` (stereo not shown) [Cmpd 11, 2-(4-((4-(3-(4-cyano-3-(trifluoromethyl)phenyl)-5,5-dimethyl-4-oxo-2-thioxoimidazolidin-1-yl)-2-ethylphenoxy)methyl)piperidin-1-yl)-N-(3-(2,6-dioxopiperidin-3-ylamino)phenyl)acetamide], for which the “Y (lowest measured AR level normalized to DMSO control)” value is “** (25%<Y<=35%)”. Moreover, the DC50 (read-out: DC50) lay in the range of 100 to 500 nM.

As for `CCc1cc(N2C(=S)N(c3cnc(C#N)c(C(F)(F)F)c3)C(=O)C2(C)C)ccc1OCCC1CCN(CC(=O)Nc2cccc(NC3CCC(=O)NC3=O)c2)CC1` (stereo not shown) [Cmpd 12, 2-(4-(2-(4-(3-(6-cyano-5-(trifluoromethyl)pyridin-3-yl)-5,5-dimethyl-4-oxo-2-thioxoimidazolidin-1-yl)-2-ethylphenoxy)ethyl)piperidin-1-yl)-N-(3-(2,6-dioxopiperidin-3-ylamino)phenyl)acetamide], the “Y (lowest measured AR level normalized to DMSO control)” value is “* (0<Y<=25%)”. The DC50 (read-out: DC50) was below 100 nM.
